Key:
[1] = molecular target: T1, Recombinant human Hsp90 alpha protein (Homo sapiens, UniProt P07900); test: Transcreener ADP FP Hsp90 ATPase assay; format: biochemical; conditions: Recombinant human HSP90, 100 μM ATP; read-out: ATPase assay on rh-Hsp90 IC50
T1 construct: human full‐length protein, expressed in Escherichia coli; His tag (C); purchased Abcam ab80369; host or cells: Escherichia coli
Method: Transcreener ADP (cat. no. 3004‐1K) and ADP2 (cat. no. 3010‐1K) FP assay kits were obtained from Bellbrook Laboratories. Recombinant human Hsp90 alpha protein (active), human full‐length protein, expressed in Escherichia coli with > 90% purity and C‐terminus His tag, was purchased from Abcam (ab80369). All FP assays were carried out in black, 384‐well, low‐volume, polystyrene nonbinding microplates from Corning Life Sciences. All basic buffer components were obtained from Sigma‐Aldrich Chemical Co. 17‐AAG (Figure 1) was obtained from Abcam. Using the Transcreener ADP FP kit, the conditions for the recombinant human Hsp90 ATPase reaction were 50 mM HEPES (pH 7.4), 20 mM KCl, 2 mM EGTA, 4 mM MgCl2, and 0.01% Brij‐35 in a 10‐μL total assay volume. The final assay concentration of ATP was 100 μM for Hsp90. Due to the relatively low level of ATPase activity compared with other enzymes, the plate was incubated at 37°C and run over 1, 2 and 3 h time points. The reaction was stopped, and the ADP was detected by adding 10 μL of 50 mM HEPES (pH 7.4), 400 mM NaCl, 20 mM EDTA, 0.01% Brij35, 75 μg/mL anti‐ADP monoclonal antibody, and 4 nM ADP far red tracer. The plate was sealed, centrifuged at 600 g for 1 min, and left at room temperature for 1 h. FP readings for the Hsp90 ATPase Transcreener assays were performed on a Clariostar plate reader ([…]). A blank mP signal composed of protein, antibody, labelled ADP, but no ATP substrate gave similar mP values to those seen in the no‐protein controls. The upper limit of the assay window was defined by a no‐protein control, and the mP in the presence of heat shock protein was subtracted from this control to generate a change in polarisation (ΔmP), which was plotted on the activity graphs. Therefore, the data take into account the spontaneous hydrolysis of ATP. Each value is the mean of triplicate determinations with standard deviations (SD) shown. IC50 values were calculated using GraphPad Prism software with the nonlinear regression curve fitted to the log (inhibitor concentration) against the raw mP values on the linear portion of the standard curve.

SW-480 cells = test: Colony forming assay, SW-480; format: cell-based, human
Method: (§1) Human Embryonic Kidney cells (HEK‐293) and human breast cancer cells (MCF‐7, MDA‐MB‐231 and HCC1954) were cultured in complete growth media: […] 1X (Gibco); 10% v/v Fetal Bovine Serum (FBS, Sigma Dorset UK) and L‐glutamine (2 mM, Invitrogen). SW‐480‐WT cells were maintained in selective media made up of Dulbecco's Modified Eagle Medium (Gibco), enriched with […] of Geneticin Selective Antibiotic (G418 Sulfate; Gibco, Thermo Fisher). Cells were incubated at a 5% CO2 atmosphere at 37°C.
(§2) Cells were seeded in a 12‐well plate at 400 cells per well. One hour after the seeding of the cells, compounds (1 mM, 100 μM, 10 μM, 1 μM, 100 nM, 10 nM) or vehicle were added into the wells in triplicate (DMSO vehicle 0.1% and 1%). After 7 days, colonies were stained with 350 μL of crystal violet solution, incubated for 30 min at room temperature, then wells were washed in water and dried. At least the best 3 independent experiments out of 5 independent repeats were used to perform the statistical analysis of the results. Colonies were counted by GelCount Colony Counter (Oxford Optronix Ltd.) using the GelCount 1.1.8.0 software. Assay end points were normalised to 0% (DMSO only) and fitted to a semi‐log plot using at least n = 3 technical replicates (n = 6 for DMSO control and N = 3 independent replicates). The curve fit was performed using GraphPad Prism. […]

MDA-MB-231 cells = test: Colony forming assay, MDA-MB-231; format: cell-based, human
Method: as §1, §2

BT474 cells = test: Colony forming assay, BT474; format: cell-based, human; conditions: 7 days treatment at 10 μM
Method: (§3) Cells were seeded in a 12‐well plate at 400 cells per well. One hour after the seeding of the cells, compounds (1 mM, 100 μM, 10 μM, 1 μM, 100 nM, 10 nM) or vehicle were added into the wells in triplicate (DMSO vehicle 0.1% and 1%). After 7 days, colonies were stained with 350 μL of crystal violet solution, incubated for 30 min at room temperature, then wells were washed in water and dried. At least the best 3 independent experiments out of 5 independent repeats were used to perform the statistical analysis of the results. Colonies were counted by GelCount Colony Counter (Oxford Optronix Ltd.) using the GelCount 1.1.8.0 software. Assay end points were normalised to 0% (DMSO only) and fitted to a semi‐log plot using at least n = 3 technical replicates (n = 6 for DMSO control and N = 3 independent replicates). The curve fit was performed using GraphPad Prism.
(§4) Compound 5d was screened for the ability to inhibit colony formation in additional human cancer cell lines (Table 3). […] Sub‐micromolar IC50 values in HCC1954 and MDA‐MB‐231 cells were derived by testing over a six‐fold log concentration range. To further extend the profile of activity, the effect of 5d on the colorectal adenocarcinoma cell line SW‐480 was studied, with similarly potent effects on colony viability (Table 3).

SKBR3 cells = test: Colony forming assay, SKBR3; format: cell-based, human; conditions: 7 days treatment at 10 μM
Method: as §3, §4

HCC1954 cells = test: Colony forming assay, HCC1954; format: cell-based, human
Method: as §1, §2

IC50 [1]	IC50 (SW-480 cells; Homo sapiens, SW480, read-out: Colony formation IC50, SW-480)	IC50 (MDA-MB-231 cells; Homo sapiens, MDA-MB-231, read-out: Colony formation IC50, MDA-MB-231)	IC50 (HCC1954 cells; Homo sapiens, HCC1954, read-out: Colony formation IC50, HCC1954)	Compound	Percentage of surviving colonies, SW-480 (SW-480 cells; 7 days treatment at 10 μM)	Percentage of surviving colonies, MDA-MB-231 (MDA-MB-231 cells; 7 days treatment at 10 μM)	Percentage of surviving colonies, BT474 (BT474 cells)	Percentage of surviving colonies, SKBR3 (SKBR3 cells)	Percentage of surviving colonies, HCC1954 (HCC1954 cells; 7 days treatment at 10 μM)
6.4 µM				COc1ccc(COC(=O)C2=C(C)NC(=O)NC2c2ccc(Cl)cc2)cc1C (stereo not shown) [Compound 5e, 4‐Methoxy‐3‐Methylbenzyl‐4‐(4‐Chlorophenyl)‐6‐Methyl‐2‐Oxo‐1,2,3,4‐Tetrahydropyrimidine‐5‐Carboxylate]					
3.25 µM	1.21 µM	0.62 µM	0.56 µM	COc1ccc(C2NC(=O)NC(C)=C2C(=O)OCc2ccc3c(c2)OCO3)c(F)c1 (stereo not shown) [Compound 5d, Benzo[d][1,3]dioxol‐5‐ylmethyl‐4‐(2‐Fluoro‐4‐Methoxyphenyl)‐6‐Methyl‐2‐Oxo‐1,2,3,4‐Tetrahydropyrimidine‐5‐Carboxylate]	57.9% ± 2.0	11.9% ± 2.9	80.4% ± 8.0	94.4% ± 2.1	8.8% ± 4.0

Source: article PMC12704579, “New Anticancer 4‐Aryldihydropyrimidinone‐5‐Carboxylates Targeting Hsp90” (Chemical Biology & Drug Design, 2025)
